The target of one assay is T1, IRAK4 kinase (Homo sapiens, UniProt Q9NWZ3).
T1 construct: purchased Carna
T1 sequence (Q9NWZ3 1-460): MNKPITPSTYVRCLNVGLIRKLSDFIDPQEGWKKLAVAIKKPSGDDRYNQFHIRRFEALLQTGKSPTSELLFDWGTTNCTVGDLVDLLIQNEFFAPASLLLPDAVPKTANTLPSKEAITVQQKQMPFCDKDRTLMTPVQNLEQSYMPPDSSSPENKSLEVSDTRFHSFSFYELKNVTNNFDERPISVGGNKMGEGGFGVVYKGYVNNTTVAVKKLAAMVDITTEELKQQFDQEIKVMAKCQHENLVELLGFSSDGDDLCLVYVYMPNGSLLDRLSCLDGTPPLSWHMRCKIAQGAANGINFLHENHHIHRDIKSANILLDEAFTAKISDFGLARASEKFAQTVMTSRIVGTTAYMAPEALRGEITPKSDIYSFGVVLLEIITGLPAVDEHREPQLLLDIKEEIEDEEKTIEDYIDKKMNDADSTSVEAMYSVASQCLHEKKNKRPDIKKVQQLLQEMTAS
The assay is described as follows: IRAK4 kinase activity test (KinEASE-STK S1 HTRF kit). In kind it is biochemical. The conditions noted are these: IRAK4 kinase 2.5 nM, 7 μM adenosine triphosphate, 37° C. 120 min. On the procedure:
Then 2.5 nM IRAK4 kinase (Carna), 1 μM biotinylated polypeptide substrate (Cisbio), and 7 μM adenosine triphosphate (Sigma-Aldrich) were sequentially added, and the mixtures were incubated at 37° C. for 120 min. Subsequently, an anti-phosphoserine/threonine antibody (Cisbio) conjugated with a europium element compound and streptavidin conjugated with a modified XL665 (Cisbio) were added to the reaction system to stop the reaction. After 1 h of incubation at room temperature, the fluorescence intensity of each well was measured at the excitation wavelength of 337 nm and the emission wavelengths of 620 nm and 665 nm with a microplate reader EnVision (PerkinElmer) in the HTRF mode, and Ratio values were calculated using the formula: Ratio=(665 nm/620 nm)×10^4. The inhibition rates of the compounds at each concentration were calculated by comparison with the fluorescence intensity ratio of the control group. Then non-linear curve fittings for logarithmic concentration-inhibition rate were performed using GraphPad Prism 7, and the IC50 values of the compounds were obtained.

In assay [1] the target is T2, IRAK4 protein in normal human PBMCs (Homo sapiens, UniProt Q9NWZ3).
T2 construct: host or cells: normal human PBMCs
T2 sequence (Q9NWZ3 1-460): T1 sequence (Q9NWZ3 1-460)
Description: Degradation of IRAK4 protein in normal human PBMCs (AlphaLISA). In kind it is cell-based. As to conditions: 24 h incubation. Here is the method: The cryopreserved normal human PBMCs (Milestone, PB010C) were thawed and resuspended in RPMI 1640 medium (Gibco, A1049101) supplemented with 10% fetal bovine serum (Gibco, 10099141), 100 U/mL penicillin, and 100 µg/mL streptomycin (Gibco, 15140122). After 0.95 mL of cells were plated in each well of a 24-well cell culture plate, 50 µL of diluted compound solution was added to corresponding wells with cells, such that the final concentration of the compound fell within the range of 0.01-3000 nM. The final concentration of DMSO was 0.25%. After the compound-treated cell plate was incubated in an incubator at 37° C. with 5% CO2 for 24 h, the cells were collected into 1.5 mL centrifuge tubes and centrifuged at 1000 rpm at 4° C. for 5 min. The cell pellets were washed twice with 1×DPBS. The resuspended cells were lysed with 100 μL of lysis buffer, left to stand on ice for 30 min, and then centrifuged at 14000 g at 4° C. for 10 min. The samples of the cell lysate supernatant after centrifugation were cryopreserved at −80° C. before testing. The cell lysis buffer was a Western and IP cell lysis buffer (Beyotime, P0013) supplemented with 1 mM phenylmethylsulfonyl fluoride and a protease inhibitor cocktail (Beyotime, P1008).
The total protein concentrations of the cell lysate samples were determined using a BCA protein quantification kit (Tiangen, PA115-02).
The prepared PBMC lysate samples were assayed for IRAK4 concentrations using a human IRAK4 AlphaLISA assay kit (PerkinElmer, AL3117C) to determine the degradation effects of the compounds on IRAK4. The method is as follows:
5 μL of each of IRAK4 standard solutions with different concentrations and test samples of cell lysate supernatant were added to a white 384-well plate (PerkinElmer, 6007299), and then 10 μL of 5× anti-IRAK4 […] beads was added to each well (final concentration of 10 μg/mL). The plate was incubated at room temperature for 30 min. Then 10 μL of 5× biotin-labeled anti-IRAK4 antibody was added to each well (final concentration of 1 nM), and the plate was incubated at room temperature for another 60 min. Finally, 25 μL of 2× streptavidin-labeled donor beads was added to each well (final concentration of 40 μg/mL), and the plate was incubated at room temperature for another 30 min. After the incubation was completed, AlphaLISA signal values were measured on a microplate reader EnVision (PerkinElmer, 2105) in the AlphaScreen standard mode. A standard curve was plotted from the AlphaLISA signal values of the IRAK4 standard solutions with different concentrations, and the IRAK4 concentration of each cell lysate supernatant was determined according to the corresponding concentrations on the standard curve for the AlphaLISA signal values of the test samples and by performing corresponding correction on the total protein concentration of each sample obtained by BCA quantification. The degradation rates for the compounds at each concentration were calculated by comparing the IRAK4 concentration with that of the control group. Then non-linear curve fittings for logarithmic concentration-inhibition rate were performed using GraphPad Prism 8, and the DC50 and Dmax values of the compound were obtained.

pIC50: −log10 of the molar value.

This is an account of results in patent US20260174878A1, “IRAK4 DEGRADATION AGENT AND USE THEREOF” (LEADINGTAC PHARMACEUTICAL (SHAOXING) CO., LTD., priority 2022, published 2026).

Turning to `COc1cc2nn([C@H]3CC[C@](O)(CN(C)CC4CCC5(CC4)CCN(C(=O)c4ccc(Cl)c(N6CCC(=O)NC6=O)c4)CC5)CC3)cc2cc1NC(=O)c1cccc(C(F)(F)F)n1` [Example 35], the pIC50 on IRAK4 kinase was 7.82. In assay [1], it took 0.65 nM to reach half-maximal degradation (DC50) and the Dmax turned out to be 99.7%.

With `COc1cc2nn([C@H]3CC[C@](O)(COCC4CCN(C(=O)c5ccc(Cl)c(N6CCC(=O)NC6=O)c5)CC4)CC3)cc2cc1NC(=O)c1cccc(C(F)(F)F)n1` [Example 33, N-(2-((1S,4S)-4-(((1-(4-chloro-3-(2,4-dioxotetrahydropyrimidin-1(2H)-yl)benzoyl)piperidin-4-yl)methoxy)methyl)-4-hydroxycyclohexyl)-6-methoxy-2H-indol-5-yl)-6-(trifluoromethyl)pyridinecarboxamide], on IRAK4 kinase, the pIC50 was 7.97. Further, in assay [1], it took 1.58 nM to reach half-maximal degradation (DC50) and the Dmax was determined as 98.6%.

At IRAK4 kinase, `CN(CCC1CCN(C(=O)c2ccc(Cl)c(N3CCC(=O)NC3=O)c2)CC1)C[C@H]1CC[C@H](n2cc(NC(=O)c3cnn4ccc(N5CCC[C@H](N)C5)nc34)c(C(F)F)n2)CC1` [Example 18, 5-((S)-3-aminopiperidin-1-yl)-N-(1-((1R,4S)-4-(((2-(1-(4-chloro-3-(2,4-dioxotetrahydropyrimidin-1(2H)-yl)benzoyl)piperidin-4-yl)ethyl)(methyl)amino)methyl)cyclohexyl)-3-(difluoromethyl)-1H-pyrazol-4-yl)pyrazolo[1,5-a]pyrimidine-3-carboxamide] gave a pIC50 of 8.10. Further, in assay [1], the DC50 was determined as 0.77 nM and the Dmax worked out at 99.5%.

Consider `CN(CCC1CCN(C(=O)c2ccc(Cl)c(N3CCC(=O)NC3=O)c2)CC1)C[C@H]1CC[C@H](n2cc(NC(=O)c3cnn4ccc(N5CC6CCC(C5)O6)nc34)c(C(F)F)n2)CC1` [Example 10, 5-(8-oxa-3-azabicyclo[3.2.1]octan-3-yl)-N-(1-((1R,4R)-4-(((2-(1-(4-chloro-3-(2,4-dioxotetrahydropyrimidin-1(2H)-yl)benzoyl)piperidin-4-yl)ethyl)(methyl)amino)methyl)cyclohexyl)-3-(difluoromethyl)-1H-pyrazol-4-yl)pyrazolo[1,5-a]pyrimidine-3-carboxamide], for which the pIC50 at IRAK4 kinase was 8.09. Further, in assay [1], the DC50 was 0.67 nM and the Dmax amounted to 97.6%.

On to `COc1ccc(C(=O)N2CCC3(CCC(CN4CCC(n5cc(NC(=O)c6cnn7ccc(N8CC9CCC(C8)O9)nc67)c(C(F)F)n5)CC4)CC3)CC2)cc1N1CCC(=O)NC1=O` [Example 6, 5-(8-oxa-3-azabicyclo[3.2.1]octan-3-yl)-N-(3-(difluoromethyl)-1-(1-((3-(3-(2,4-dioxotetrahydropyrimidin-1(2H)-yl)-4-methoxybenzoyl)-3-azaspiro[5.5]undecan-9-yl)methyl)piperidin-4-yl)-1H-pyrazol-4-yl)pyrazolo[1,5-a]pyrimidine-3-carboxamide], for which, in assay [1], it took 0.56 nM to reach half-maximal degradation (DC50) and the Dmax was 97.9%.

Take `COc1ccc(C(=O)N2CCC3(CCN(CCCN4CCC(n5cc(NC(=O)c6cnn7ccc(N8CCOCC8)nc67)c(C(F)F)n5)CC4)CC3)CC2)cc1N1CCC(=O)NC1=O` [Example 28, N-(3-(difluoromethyl)-1-(1-(3-(9-(3-(2,4-dioxotetrahydropyrimidin-1(2H)-yl)-4-methoxybenzoyl)-3,9-diazaspiro[5.5]undecan-3-yl)propyl)piperidin-4-yl)-1H-pyrazol-4-yl)-5-morpholinopyrazolo[1,5-a]pyrimidine-3-carboxamide]: in assay [1], the DC50 came out at 4.73 nM and the Dmax was found to be 107%.

Take `O=C1CCN(c2cc(C(=O)N3CCC(CCCCN4CCC(n5cc(NC(=O)c6cnn7ccc(N8C[C@H]9C[C@@H]8CO9)nc67)c(C(F)F)n5)CC4)CC3)ccc2Cl)C(=O)N1` [Example 7, 5-((1R,4R)-2-oxa-5-azabicyclo[2.2.1]heptan-5-yl)-N-(1-(1-(4-(1-(4-chloro-3-(2,4-dioxotetrahydropyrimidin-1(2H)-yl)benzoyl)piperidin-4-yl)butyl)piperidin-4-yl)-3-(difluoromethyl)-1H-pyrazol-4-yl)pyrazolo[1,5-a]pyrimidine-3-carboxamide]: in assay [1], the DC50 amounted to 0.39 nM and the Dmax amounted to 98.1%.
